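Growth conditions: 96-well plates. Treatment: test compound, 48 hours, 5 concentrations. Analysis: linear interpolation between bracketing concentrations; unreached endpoints set to highest concentration. At the TGI there is no net growth.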
Tests used:
Test in all cases: DTP human tumour cell line panel, 48 h
HL-60(TB) leukemia = test system: HL-60(TB) leukemia
HS 578T breast = test system: HS 578T breast
HCT-15 colon = test system: HCT-15 colon
SF-539 CNS = test system: SF-539 CNS
T-47D breast = test system: T-47D breast
SK-OV-3 ovarian = test system: SK-OV-3 ovarian
OVCAR-5 ovarian = test system: OVCAR-5 ovarian
MDA-MB-231 breast = test system: MDA-MB-231 breast
SW-620 colon = test system: SW-620 colon
COLO 205 colon = test system: COLO 205 colon
HCC-2998 colon = test system: HCC-2998 colon
SN12C renal = test system: SN12C renal
TK-10 renal = test system: TK-10 renal
MOLT-4 leukemia = test system: MOLT-4 leukemia
SNB-19 CNS = test system: SNB-19 CNS
KM20L2 colon = test system: KM20L2 colon
DMS 114 small cell lung = test system: DMS 114 small cell lung
UACC-62 melanoma = test system: UACC-62 melanoma
A549 NSCLC = test system: A549 NSCLC
UACC-257 melanoma = test system: UACC-257 melanoma
SR leukemia = test system: SR leukemia
HOP-62 NSCLC = test system: HOP-62 NSCLC
DLD-1 colon = test system: DLD-1 colon
CCRF-CEM leukemia = test system: CCRF-CEM leukemia
EKVX NSCLC = test system: EKVX NSCLC
SF-268 CNS = test system: SF-268 CNS
K-562 leukemia = test system: K-562 leukemia
NCI-H460 lung = test system: NCI-H460 lung
DU-145 prostate = test system: DU-145 prostate
HOP-18 NSCLC = test system: HOP-18 NSCLC
SK-MEL-5 melanoma = test system: SK-MEL-5 melanoma
U251 CNS = test system: U251 CNS
RXF 393 renal = test system: RXF 393 renal
A498 renal = test system: A498 renal
HOP-92 NSCLC = test system: HOP-92 NSCLC
MALME-3M melanoma = test system: MALME-3M melanoma
NCI-H522 lung = test system: NCI-H522 lung
XF 498 CNS = test system: XF 498 CNS
MCF7 breast = test system: MCF7 breast
SK-MEL-2 melanoma = test system: SK-MEL-2 melanoma
NCI-H226 lung = test system: NCI-H226 lung
HT29 colon = test system: HT29 colon
SNB-75 CNS = test system: SNB-75 CNS
ACHN renal = test system: ACHN renal
CAKI-1 renal = test system: CAKI-1 renal
PC-3 prostate = test system: PC-3 prostate
KM12 colon = test system: KM12 colon
BT-549 breast = test system: BT-549 breast
SF-295 CNS = test system: SF-295 CNS
SNB-78 CNS = test system: SNB-78 CNS
NCI-H23 lung = test system: NCI-H23 lung
LOX IMVI melanoma = test system: LOX IMVI melanoma
OVCAR-4 ovarian = test system: OVCAR-4 ovarian
M14 melanoma = test system: M14 melanoma
M19-MEL melanoma = test system: M19-MEL melanoma
HCT-116 colon = test system: HCT-116 colon
IGROV1 ovarian = test system: IGROV1 ovarian
RXF-631 renal = test system: RXF-631 renal
UO-31 renal = test system: UO-31 renal
OVCAR-8 ovarian = test system: OVCAR-8 ovarian
MDA-N = test system: MDA-N
OVCAR-3 ovarian = test system: OVCAR-3 ovarian
RPMI-8226 leukemia = test system: RPMI-8226 leukemia
LXFL 529 NSCLC = test system: LXFL 529 NSCLC
786-0 renal = test system: 786-0 renal
DMS 273 small cell lung = test system: DMS 273 small cell lung
SK-MEL-28 melanoma = test system: SK-MEL-28 melanoma

COc1cccc2c1C(=O)c1c(O)c3c(c(O)c1C2=O)C[C@@](O)(/C(C)=N\O)C[C@@H]3OC1CC(N)C(O)C(C)O1 (some centres not stated)
TGI (HL-60(TB) leukemia): 2.14 µM
TGI (HS 578T breast): 6.58 µM
TGI (HCT-15 colon): > 100 µM
TGI (SF-539 CNS): 3.8 µM
TGI (T-47D breast): 11 µM
TGI (SK-OV-3 ovarian): 11.7 µM
TGI (OVCAR-5 ovarian): 12.2 µM
TGI (MDA-MB-231 breast): 7.17 µM
TGI (SW-620 colon): 10.3 µM
TGI (COLO 205 colon): 3.56 µM
TGI (HCC-2998 colon): 3.04 µM
TGI (SN12C renal): 13.1 µM
TGI (TK-10 renal): 37.2 µM
TGI (MOLT-4 leukemia): 1.55 µM
TGI (SNB-19 CNS): 8.93 µM
TGI (KM20L2 colon): 30.9 µM
TGI (DMS 114 small cell lung): 2.58 µM
TGI (UACC-62 melanoma): 2.94 µM
TGI (A549 NSCLC): 6.22 µM
TGI (UACC-257 melanoma): 6.02 µM
TGI (SR leukemia): 2.97 µM
TGI (HOP-62 NSCLC): 6.46 µM
TGI (DLD-1 colon): 18.2 µM
TGI (CCRF-CEM leukemia): 2.38 µM
TGI (EKVX NSCLC): 19.5 µM
TGI (SF-268 CNS): 5.77 µM
TGI (K-562 leukemia): 7.72 µM
TGI (NCI-H460 lung): 8.16 µM
TGI (DU-145 prostate): 5.74 µM
TGI (HOP-18 NSCLC): 7.26 µM
TGI (SK-MEL-5 melanoma): 2.29 µM
TGI (U251 CNS): 7.73 µM
TGI (RXF 393 renal): 4.76 µM
TGI (A498 renal): 3.31 µM
TGI (HOP-92 NSCLC): 7.31 µM
TGI (MALME-3M melanoma): 2.41 µM
TGI (NCI-H522 lung): 1.73 µM
TGI (XF 498 CNS): 0.951 µM
TGI (MCF7 breast): 9.97 µM
TGI (SK-MEL-2 melanoma): 2.48 µM
TGI (NCI-H226 lung): 7.52 µM
TGI (HT29 colon): 13.2 µM
TGI (SNB-75 CNS): 2.54 µM
TGI (ACHN renal): 10.8 µM
TGI (CAKI-1 renal): 22.6 µM
TGI (PC-3 prostate): 8.08 µM
TGI (KM12 colon): 15.8 µM
TGI (BT-549 breast): 5.65 µM
TGI (SF-295 CNS): 7.84 µM
TGI (SNB-78 CNS): 8.2 µM
TGI (NCI-H23 lung): 3.8 µM
TGI (LOX IMVI melanoma): 6.06 µM
TGI (OVCAR-4 ovarian): 17.3 µM
TGI (M14 melanoma): 6.78 µM
TGI (M19-MEL melanoma): 3.79 µM
TGI (HCT-116 colon): 7.55 µM
TGI (IGROV1 ovarian): 17.2 µM
TGI (RXF-631 renal): 45.5 µM
TGI (UO-31 renal): 49.2 µM
TGI (OVCAR-8 ovarian): 11.8 µM
TGI (MDA-N): 5.83 µM
TGI (OVCAR-3 ovarian): 8.58 µM
TGI (RPMI-8226 leukemia): 8.33 µM
TGI (LXFL 529 NSCLC): 7.11 µM
TGI (786-0 renal): 11.1 µM
TGI (DMS 273 small cell lung): 4.52 µM
TGI (SK-MEL-28 melanoma): 3.98 µM

Reference: PubChem BioAssay (NCI)
